Publication PMC4038613, “A New Class of Multimerization Selective Inhibitors of HIV-1 Integrase” (PLoS Pathogens, 2014)
Like-named read-outs stand apart in the source and are kept apart here.

Experiments:
[1] = in vitro; format: cell-based
Protocol: The cytotoxcity assays were performed as described previously. The fitted dose-response curves were generated to calculate EC50 or CC50 using Origin software (OriginLab, Inc.).

[2] = system: HIV-1 capsid (p24); assay: Sucrose density gradient fractionation of detergent-lysed virions; format: cell-based; settings: 1 µM KF116, fractions 18–20
Protocol: Cell-free virions were harvested, detergent-lysed, and separated on 30–70% linear sucrose density gradients. Twenty-one 0.5 ml fractions were collected from the top of the gradient and subjected to SDS-PAGE and immunoblotted with HIV-1 Gag antisera to monitor the distribution of HIV-1 capsid. […] (D) Quantitation of HIV-1 capsid (p24) signal intensity from (B) as measured by ImageJ software. Graph represents the relative distribution of HIV-1 capsid (p24) in each of the sucrose density gradient fractions.
Sucrose density gradient fractionation was carried out as described previously [74] with some modifications. Briefly, HIV-1 virions were produced in the presence of the inhibitor or diluent control (DMSO) and cell-free virions were concentrated over a 25% sucrose cushion by ultra-centrifugation at 28,000 rpm for 2 h at 4°C in SW41 rotor (Beckman). Pelleted virions were resuspended in 300 µl STE buffer (10 mM Tris pH 7.5, 100 mM NaCl, 1 mM EDTA), lysed with 0.5% Triton X100 for 2 minutes at room temperature. Lysed virions were loaded on 30–70% linear sucrose density gradients in STE buffer, and ultra-centrifuged at 28,500 rpm for 16 h at 4°C in SW41 rotor (Beckman). Twenty-one 0.5-ml fractions were collected from the top of the gradient and subjected to SDS-PAGE and immunoblotted with HIV-1 Gag antisera to monitor the distribution of HIV-1 capsid.

[3] = system: initiation of reverse transcription; assay: tRNALys3 primer extension assay; format: biochemical, HIV-1; settings: virions produced with 1 µM KF116
[4] = system: A128T IN HIV-1NL4-3; assay: A128T HIV-1 infectivity in TZM-bl cells; format: cell-based; settings: particles produced in presence of inhibitor
[5] = system: HIV-1NL4-3; assay: microbe, parasite or virus in culture; format: cell-based
[6] = system: LEDGF/p75-dependent HIV-1 integration; assay: HIV-1 integration site distribution (ligation-mediated PCR, 454-pyrosequencing); format: cell-based
[7] = molecular target: T1, IN (Human immunodeficiency virus type 1 group M subtype B, UniProt P12497); assay: DLS assay of recombinant IN multimerization; format: biochemical, HIV-1
T1 construct: DLS analysis of KF116-induced multimerization of recombinant IN
Protocol: (A) DLS analysis of KF116-induced multimerization of recombinant IN. […] The indicated volumes of cross-linked reaction products were resolved by SDS-PAGE and immunoblotted with HIV-1 IN antibody. The bands corresponding to IN “monomer”, “dimer”, and “higher order oligomers” are indicated.
DLS signals were recorded at room temperature using a Malvern Nano series zetasizer instrument.

[8] = system: HIV-1; assay: Antiviral assay, late stage (inhibitor added to producer cells); format: cell-based; settings: Human immunodeficiency virus 1, virions prepared in presence of inhibitor, untreated target cells; called IC50
Protocol: Results represent mean ± SD from three independent experiments.
For late stage experiments, the progeny virions were prepared in the presence of the indicated concentrations of the test inhibitor or diluent control (DMSO) and were then used to infect untreated target cells.

[9] = system: HIV-1 particles; assay: Virus production (Gag p24 ELISA) and virion protein processing (immunoblot); format: cell-based; settings: 1 µM KF116
Protocol: HEK293T cells (2×10^6 cells/100 mm culture dish in 10 ml of complete medium) were transfected with HIV-1 provirus (pNL4-3) and cultured for 24 h to ensure expression of the provirus as described above. Next, the cells were treated with the indicated inhibitor or diluent control (DMSO) for 1 h. The culture supernatant was replaced with fresh complete medium containing either the inhibitor or DMSO, and cells were then cultured for another 24 h to allow for the production of HIV-1 particles in the presence of the inhibitor or diluent control. The virus containing cell-free supernatant was collected, filtered through 0.45 µm filter, and the amounts of viral particles produced was measured by HIV-1 Gag p24 ELISA (ZeptoMetrix) following manufacturer's protocol. Equivalent amounts of virions (∼5 µg p24 based on HIV-1 p24 ELISA) were concentrated over a 25% sucrose cushion by ultra-centrifugation at 28,000 rpm for 2 h at 4°C in SW41 rotor (Beckman). Pelleted virions were lysed in 100 µL RIPA buffer containing 50 mM Tris (pH 8.0), 150 mM NaCl, 0.1% SDS, 1% Triton-X, 1% deoxycholic acid, and 2 mM PMSF. Indicated amounts of concentrated virions were resolved by SDS-PAGE (4–12%, Invitrogen) and immunoblotted.
HEK293T cells were transfected with HIV-1 provirus (pNL4-3). […] (A) Virus-containing cell-free supernatant were harvested and cell-free Gag was measured by HIV-1 Gag p24 ELISA. […]

[10] = molecular target: T2, HIV-1 IN (Human immunodeficiency virus type 1 group M subtype B, UniProt P12497); assay: biochemical
Protocol: (§1) HTRF-based IN multimerization and IN-LEDGF/p75 binding assays were carried out as described previously [33]. The HTRF signal was recorded using a Perkin Elmer Multimode EnSpire plate reader.

[11] = system: HIV-1MJ4; assay: Antiviral assay against HIV-1 clade C (pMJ4); format: cell-based; settings: Human immunodeficiency virus 1, IN residue Ala125, read-out: IC50 for inhibition of HIV-1MJ4 replication
[12] = system: HIV-1 expression; format: cell-based; settings: for inhibition of HIV-1 expression: target cells
[13] = molecular target: T2, HIV-1 IN; settings: IC50 for inhibiting IN-LEDGF/p75 binding divided by EC50 for aberrant IN multimerization; fold
Protocol: as §1

[14] = molecular target: IN-LEDGF/p75 (Human immunodeficiency virus type 1 group M subtype B, UniProt P12497); assay: HTRF-based IN-LEDGF/p75 binding assay; set-up: species or system HIV-1
Protocol: HTRF-based IN multimerization and IN-LEDGF/p75 binding assays were carried out as described previously [33].

[15] = system: HIV-1 virions; format: cell-based; settings: virions produced in presence of 1 µM KF116
[16] = Target, 5 µM, *** P<0.001 vs DMSO
[17] = target cells, 10 µM, *** P<0.001 vs DMSO

With Cc1nc(-c2nc3ccc(Cl)cc3[nH]2)c(C)c(-c2ccccc2)c1C(OC(C)(C)C)C(=O)O (stereo not drawn) [KF116] the CC50 [1] was over 100000 nM, the “reduction of HIV-1 capsid (p24) in higher density fractions” value [2] was over 95% and the “effect on annealing of tRNALys3 primer to viral RNA template (primer extension)” value [3] was “did not significantly affect”. The “A128T IN HIV-1NL4-3 replication in infected cells” value [4] was “effectively impaired”, the IC50 ([5]; Human immunodeficiency virus 1, read-out: Antiviral activity (IC50), HIV-1NL4-3, full replication cycle) was about 24 nM and the EC50 ([5]; Human immunodeficiency virus 1, read-out: EC50, Full Replication Cycle, KF116 added to both producer and target cells, mean ± SD, three experiments) was 24 nM. The “% in RefSeq (HIV-1 integration frequency)” value (shortened to “% in RefSeq”) ([6]; Producer, 100 nM) was 82.67%, the “% in known genes (HIV-1 integration frequency)” value (“% in known genes” for short) ([6]; Producer, 100 nM) was 83.79% and the “% in RefSeq” value [6, 16] was 81.17%. The “% in known genes” value [6, 16] was 82.38%, the “% in RefSeq” value [6, 17] was 83.17% and the “% in known genes” value [6, 17] was 84.31%. For the same compound, the “DLS particle size diameter, 30 min” value ([7]; 1 µM KF116, 200 nM IN) was 1106 nm, the “DLS particle size diameter, 120 min” value ([7]; 1 µM KF116, 200 nM IN) was 1281 nm and the “DLS particle size diameter, immediately upon addition (2 minutes)” value ([7]; 1 µM KF116, 200 nM IN) was 142 nm. For the same compound, the “DLS signal of inhibitor alone (self-aggregation in aqueous solution)” value ([7]; only KF116, no IN) was “no signal was recorded”, the EC50 [8] was about 30 nM and the “effect on HIV-1 Gag/Gag-Pol protein processing” value [9] was “did not affect”. For the same compound, the “effect on virus particle production” value [9] was “did not affect”, the EC50 [10] was 86 ± 6 nM and the IC50 [11] was 127 ± 10 nM. The “inhibition of HIV-1 expression” value ([12]; 5 µM) was “did not significantly inhibit HIV-1 expression”, the “inhibition of HIV-1 expression” value ([12]; 10 µM) was “did not significantly inhibit HIV-1 expression” and the “reduction in target cell HIV-1 expression” value ([12]; virus-producer cells treated with 0.1 µM) was about 77%. For the same compound, the “Selectivity ratio, IC50 IN-LEDGF/EC50 aberrant IN multimerization” value [13] was 58.5, the IC50 [14] was 5030 ± 360 nM and the “eccentric cores among mature virions” value [15] was about 95%.
